Laboratory results from US12011444B2, “N-substituted indole derivatives as PGE2 receptor modulators” (Idorsia Pharmaceuticals Ltd, priority 2015, dated 2024).

What was measured:
[1] = target: EP4 (Homo sapiens (Human), UniProt P35408); assay: hEP4 cAMP assay (BT549 breast cancer cells, HTRF cAMP); format: cell-based; conditions: antagonistic activity; mean values where measured multiple times
Method: Plate is pre-incubated 45 minutes at room temperature. Subsequently, 2.5 microliters of PGE2 (final conc. 6 nM) are transferred into the assay plate. Plate is incubated 30 minutes at room temperature.

[2] = target: EP2 (Homo sapiens (Human), UniProt P43116);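 note: antagonism of PGE2-stimulated cAMP accumulation in SF295 human glioblastoma cells with endogenous EP2, cAMP read by HTRF, expressed relative to DMSO control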
Chain of EP2 (P43116 whole entry): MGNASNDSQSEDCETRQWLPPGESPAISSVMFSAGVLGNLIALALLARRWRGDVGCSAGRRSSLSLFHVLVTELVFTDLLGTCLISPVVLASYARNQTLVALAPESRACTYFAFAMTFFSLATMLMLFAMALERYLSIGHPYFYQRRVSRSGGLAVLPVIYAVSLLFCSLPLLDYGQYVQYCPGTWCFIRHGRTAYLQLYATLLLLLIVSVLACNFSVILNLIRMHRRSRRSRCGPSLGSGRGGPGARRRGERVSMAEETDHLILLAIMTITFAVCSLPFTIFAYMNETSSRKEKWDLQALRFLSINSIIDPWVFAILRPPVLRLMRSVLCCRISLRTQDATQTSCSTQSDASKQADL

Chain of EP4 (P35408 whole entry): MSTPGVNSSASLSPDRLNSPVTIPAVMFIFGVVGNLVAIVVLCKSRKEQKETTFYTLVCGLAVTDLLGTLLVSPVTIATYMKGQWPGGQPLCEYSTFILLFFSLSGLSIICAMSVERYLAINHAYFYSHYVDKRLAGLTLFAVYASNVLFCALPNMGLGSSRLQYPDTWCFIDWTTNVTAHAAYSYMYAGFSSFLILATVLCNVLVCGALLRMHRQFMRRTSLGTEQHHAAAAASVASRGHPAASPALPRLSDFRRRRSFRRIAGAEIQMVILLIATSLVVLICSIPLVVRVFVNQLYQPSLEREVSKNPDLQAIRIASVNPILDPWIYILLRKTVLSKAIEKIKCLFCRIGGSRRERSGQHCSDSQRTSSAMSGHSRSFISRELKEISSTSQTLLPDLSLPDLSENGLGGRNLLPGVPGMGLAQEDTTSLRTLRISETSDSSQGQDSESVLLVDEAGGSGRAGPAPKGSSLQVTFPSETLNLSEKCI

| SMILES | IC50 [1] | IC50 [2] |
| --- | --- | --- |
| CCOc1cc(-c2cc(NCCn3c(C)cc4c(Cl)ccc(F)c43)ncn2)cc(Cl)c1C(=O)O [compound 450] | 117 nM | 9 nM |
| CCOc1cc(-c2cc(NCCn3c(C)cc4c5c(cc(Cl)c43)OCO5)ncn2)ccc1C(=O)O [compound 454, 4-{6-[2-(5-Chloro-7-methyl-[1,3]dioxolo[4,5-e]indol-6-yl)-ethylamino]-pyrimidin-4-yl}-2-ethoxy-benzoic acid] | 445 nM | 14 nM |
| CCNc1cc(-c2cc(NCCn3c(C)cc4c(C#N)ccc(F)c43)ncn2)ccc1C(=O)O [compound 451] | 240 nM | 2 nM |
| CCCOc1cc(-c2cc(NCCn3c(C)cc4c(OC)cccc43)ncn2)cc(F)c1C(=O)O [compound 498] | 609 nM | 20 nM |
| CCc1cc(-c2cc(NCCn3c(C)cc4c(OC)ccc(Cl)c43)ncn2)cc(F)c1C(=O)O [compound 429] | 775 nM | 25 nM |
| COc1ccc(F)c2c1cc(C)n2CCNc1cc(-c2ccc(-c3nnc(C)o3)c(F)c2)ncn1 [compound 455] | 154 nM | 74 nM |
| Cc1cc(F)c(F)c2c1cc(C)n2CCNc1cc(-c2ccc(C(=O)O)c(CC(C)C)c2)ncn1 [compound 502] | 114 nM | 149 nM |
| COc1cccc2c1cc(C)n2CCNc1cc(-c2ccc(-c3csc(CC(N)=O)n3)cc2)ncn1 [Example 785, 2-[4-(4-{6-[2-(4-Methoxy-2-methyl-indol-1-yl)-ethylamino]-pyrimidin-4-yl}-phenyl)-thiazol-2-yl]-acetamide] | 906 nM | 13 nM |
| COc1ccc(F)c2c1cc(C)n2CCNc1cc(-c2ccc(-c3nc(N)sc3C)cc2)ncn1 [compound 458, {6-[4-(2-Amino-5-methyl-thiazol-4-yl)-phenyl]-pyrimidin-4-yl}-[2-(7-fluoro-4-methoxy-2-methyl-indol-1-yl)-ethyl]-amine] | 74 nM | 25 nM |
| CCCOc1cc(-c2cc(NCCn3c(C)cc4c(C)cc(F)cc43)ncn2)ccc1C(=O)O [compound 439] | 272 nM | 19 nM |
| CCOc1cc(-c2cc(NCCn3c(C)cc4c(OC)c(Cl)cc(F)c43)ncn2)sc1C(=O)O [compound 409] | 146 nM | 345 nM |
| Cc1ccc(Cl)c2c1cc(C)n2CCNc1cc(-c2ccc(C(=O)O)c(S/C=C/F)c2)ncn1 [Example 788, 4-{6-[2-(7-Chloro-2,4-dimethyl-indol-1-yl)-ethylamino]-pyrimidin-4-yl}-2-((E)-2-fluoro-vinylsulfanyl)-benzoic acid] | 925 nM | 49 nM |
| CCNc1cc(-c2cc(NCCn3c(C)cc4c(F)ccc(OC)c43)ncn2)ccc1C(=O)O [compound 399] | 483 nM | 17 nM |
| COc1cnc(-c2ccc(-c3cc(NCCn4c(C)cc5c(OC)cc(F)cc54)ncn3)cc2)nc1 [Example 757, [2-(6-Fluoro-4-methoxy-2-methyl-indol-1-yl)-ethyl]-{6-[4-(5-methoxy-pyrimidin-2-yl)-phenyl]-pyrimidin-4-yl}-amine] | 345 nM | 44 nM |
| COc1cc(F)cc2c1cc(C)n2CCNc1cc(-c2ccc(-c3ncc(C)n3C)cc2)ncn1 [Example 752, {6-[4-(1,5-Dimethyl-1H-imidazol-2-yl)-phenyl]-pyrimidin-4-yl}-[2-(6-fluoro-4-methoxy-2-methyl-indol-1-yl)-ethyl]-amine] | 633 nM | 85 nM |
| COc1cc(F)cc2c1cc(C)n2CCNc1cc(-c2ccc(-c3ncccn3)cc2)ncn1 [Example 755, [2-(6-Fluoro-4-methoxy-2-methyl-indol-1-yl)-ethyl]-[6-(4-pyrimidin-2-yl-phenyl)-pyrimidin-4-yl]-amine] | 452 nM | 41 nM |
| CCOc1cc(-c2cc(NCCn3c(C)cc4c(OC)ccc(F)c43)ncn2)ccc1C(=O)NOC [Example 765, 2-Ethoxy-4-{6-[2-(7-fluoro-4-methoxy-2-methyl-indol-1-yl)-ethylamino]-pyrimidin-4-yl}-N-methoxy-benzamide] | 403 nM | 13 nM |
| CCCc1cc(-c2cc(NCCn3c(C)cc4cc(OC)cc(F)c43)ncn2)ccc1C(=O)O [compound 443] | 487 nM | 175 nM |

Further lines, results first:

| IC50 [1] | IC50 [2] | SMILES |
| --- | --- | --- |
| 55 nM | 10 nM | COc1ccc(F)c2c1cc(C)n2CCNc1cc(-c2ccc3c(ccn3C)c2)ncn1 [compound 706, [2-(7-Fluoro-4-methoxy-2-methyl-indol-1-yl)-ethyl]-[6-(1-methyl-1H-indol-5-yl)-pyrimidin-4-yl]-amine] |
| 303 nM | 16 nM | CCOc1cc(-c2cc(NCCn3c(C)cc4c(C)cc(F)cc43)ncn2)cc(F)c1-c1nnn[nH]1 [compound 660] |
| 644 nM | 2 nM | CCOc1cc(-c2cc(NCCn3c(C)cc4ccccc43)ncn2)ccc1-c1nnn[nH]1 [compound 669] |
| 54 nM | 6 nM | COc1cc(F)c(F)c2c1cc(C)n2CCNc1cc(-c2ccc(C(=O)O)c(NCC(F)(F)F)c2)ncn1 [compound 644, 4-{6-[2-(6,7-Difluoro-4-methoxy-2-methyl-indol-1-yl)-ethylamino]-pyrimidin-4-yl}-2-(2,2,2-trifluoro-ethylamino)-benzoic acid] |
| 253 nM | 21 nM | CCCc1cc(-c2cc(NCCn3c(C)cc4c(OC)ccc(Cl)c43)ncn2)cc(F)c1C(=O)O [compound 512] |
| 373 nM | 97 nM | CCCc1cc(-c2cc(NCCn3c(C)cc4c(OC)c(F)ccc43)ncn2)cc(Cl)c1C(=O)O [compound 517] |
| 325 nM | 16 nM | COc1cc(F)cc2c1cc(C)n2CCNc1cc(-c2ccc(C(=O)O)c(OC(F)(F)F)c2)ncn1 [compound 604] |
| 142 nM | 6 nM | COc1cc(F)cc2c1cc(C)n2CCNc1cc(-c2ccc(C(=O)O)c(OC(F)F)c2)ncn1 [compound 630] |
| 77 nM | 15 nM | Cc1cc(F)cc2c1cc(C)n2CCNc1cc(-c2ccc3[nH]ccc3c2)ncn1 [compound 697, [2-(6-Fluoro-2,4-dimethyl-indol-1-yl)-ethyl]-[6-(1H-indol-5-yl)-pyrimidin-4-yl]-amine] |
| 287 nM | 37 nM | Cc1cc(F)cc2c1cc(C)n2CCNc1cc(-c2cc(Cl)c(C(=O)O)c(OCC(F)(F)F)c2)ncn1 [compound 723] |
| 54 nM | 25 nM | CCCOc1cc(-c2cc(NCCn3c(C)cc4c(OC)cc(F)c(F)c43)ncn2)cc(F)c1C(=O)O [compound 637] |
| 37 nM | 23 nM | COc1cc(F)c(F)c2c1cc(C)n2CCNc1cc(-c2ccc(-c3cnc(N)o3)cc2)ncn1 [compound 639] |
| 85 nM | 5 nM | COc1ccc(F)c2c1cc(C)n2CCNc1cc(-c2ccc(C(=O)O)c(OCC(C)C)c2)ncn1 [compound 616] |
| 828 nM | 33 nM | CCOc1cc(-c2cc(NCCn3c(C)cc4c(C)ccc(F)c43)ncn2)cc(CC)c1C(=O)O [compound 532] |
| 57 nM | 16 nM | Cc1ccc(F)c2c1cc(C)n2CCNc1cc(-c2ccc(-c3nc(C(=O)O)cs3)cc2)ncn1 [compound 546] |
| 840 nM | 25 nM | COc1cc(F)c(F)c2c1cc(C)n2CCNc1cc(-c2ccc(-c3ccno3)cc2)ncn1 [compound 745, [2-(6,7-Difluoro-4-methoxy-2-methyl-indol-1-yl)-ethyl]-[6-(4-isoxazol-5-yl-phenyl)-pyrimidin-4-yl]-amine] |
| 158 nM | 18 nM | CCCc1cc(-c2cc(NCCn3c(C)cc4c(OC)cc(Cl)cc43)ncn2)cc(F)c1C(=O)O [compound 511] |
| 151 nM | 119 nM | COc1cc(F)cc2c1cc(C)n2CCNc1cc(-c2ccc(C(=O)O)c(C(C)(C)C)c2)ncn1 [compound 528] |
| 373 nM | 15 nM | COc1ccc(F)c2c1cc(C)n2CCNc1cc(-c2ccc(C(=O)CC#N)cc2)ncn1 [compound 710, 3-(4-{6-[2-(7-Fluoro-4-methoxy-2-methyl-indol-1-yl)-ethylamino]-pyrimidin-4-yl}-phenyl)-3-oxo-propionitrile] |
| 22 nM | 8 nM | CCNc1cc(-c2cc(NCCn3c(C)cc4c(C)ccc(F)c43)ncn2)ccc1-c1nnn[nH]1 [compound 668, {6-[3-Ethylamino-4-(1H-tetrazol-5-yl)-phenyl]-pyrimidin-4-yl}-[2-(7-fluoro-2,4-dimethyl-indol-1-yl)-ethyl]-amine] |
| 948 nM | 160 nM | COc1ccc(F)c2cc(C)n(CCNc3cc(-c4ccc(C(=O)O)c(CC(C)C)c4)ncn3)c12 [compound 539] |
| 443 nM | 93 nM | Cc1ccc(F)c2c1cc(C)n2CCNc1cc(-c2ccc(C(=O)O)c(Oc3ccc(F)cc3)c2)ncn1 [compound 650] |
| 57 nM | 38 nM | COc1cc(F)c(F)c2c1cc(C)n2CCNc1cc(-c2ccc3c(ccn3C)c2)ncn1 [compound 707, [2-(6,7-Difluoro-4-methoxy-2-methyl-indol-1-yl)-ethyl]-[6-(1-methyl-1H-indol-5-yl)-pyrimidin-4-yl]-amine] |
| 251 nM | 8 nM | COc1ccc(F)c2c1cc(C)n2CCNc1cc(-c2ccc(-c3ccno3)cc2)ncn1 [compound 744, [2-(7-Fluoro-4-methoxy-2-methyl-indol-1-yl)-ethyl]-[6-(4-isoxazol-5-yl-phenyl)-pyrimidin-4-yl]-amine] |
| 91 nM | 8 nM | Cc1ccc(F)c2c1cc(C)n2CCNc1cc(-c2ccc(C(=O)O)c(OCC(C)C)c2)ncn1 [compound 534] |
| 339 nM | 5 nM | Cc1cc2c(Cl)cc(Cl)cc2n1CCNc1cc(-c2ccc(-c3nc(C(=O)O)cs3)cc2)ncn1 [compound 551] |
| 136 nM | 2 nM | CCNc1cc(-c2cc(NCCn3c(C)cc4ccccc43)ncn2)ccc1-c1nnn[nH]1 [compound 671, {6-[3-Ethylamino-4-(1H-tetrazol-5-yl)-phenyl]-pyrimidin-4-yl}-[2-(2-methyl-indol-1-yl)-ethyl]-amine] |
